What was measured:
A549 = test: MTS cell viability assay, single agents; assay type: cell-based; conditions: Homo sapiens, A549, 72 h, read-out: IC50 (concentration of drug required to inhibit cell growth by 50%)
Method: (§1) The human NSCLC (non-small cell lung cancer) cell lines A549, H23, H226, H358, H460, and H522 were seeded in 96 well plates (5000 cells/well); after overnight incubation, the cells were treated with epothilone D or carboplatin alone or epothilone D and carboplatin in combination. Once the IC50 value of each drug was obtained, the combined drug treatment was designed at constant ratios of the two drugs and the treatment schedule varied: either epothilone D or carboplatin was administered first with the second drug added 24 hours later. Cell viability was assayed by the MTS assay. […] Cells were treated with epothilone D or carboplatin at varying concentrations, ranging from 1 pM to 10 μM, for 3 days. Cell viability was determined using the using the MTS assay (Promega). IC50 is defined as the concentration of drug required to inhibit cell growth by 50%.

H226 = test: MTS cell viability assay, single agents; assay type: cell-based; conditions: Homo sapiens, NCI-H226, 72 h, read-out: IC50 (concentration of drug required to inhibit cell growth by 50%)
Method: as §1

H23 = test: MTS cell viability assay, single agents; assay type: cell-based; conditions: Homo sapiens, NCI-H23, 72 h, read-out: IC50 (concentration of drug required to inhibit cell growth by 50%)
Method: as §1

H358 = test: MTS cell viability assay, single agents; assay type: cell-based; conditions: Homo sapiens, NCI-H358, 72 h, read-out: IC50 (concentration of drug required to inhibit cell growth by 50%)
Method: as §1

H460 = test: MTS cell viability assay, single agents; assay type: cell-based; conditions: Homo sapiens, NCI-H460, 72 h, read-out: IC50 (concentration of drug required to inhibit cell growth by 50%)
Method: as §1

H522 = test: MTS cell viability assay, single agents; assay type: cell-based; conditions: Homo sapiens, NCI-H522, 72 h, read-out: IC50 (concentration of drug required to inhibit cell growth by 50%)
Method: as §1

[1] = system: human NSCLC cell lines A549, H23, H226, H358, H460, and H522; test: MTS cell viability assay across the NSCLC panel, single agents and constant-ratio combination; assay type: cell-based; conditions: single agent, 1 pM to 10 μM, 3 days; carboplatin judged at 10,000 nM
Method: as §1

[2] = system: human lung cancer xenograft MV522; test: Human lung cancer xenograft in nude mice; assay type: in vivo; conditions: ip, epothilone D twice a day for 7 days (6 to 14 mg/kg/day), carboplatin daily for 5 days (10 to 40 mg/kg/day), dose dependent
Method: (§2) The drug combination was also tested in nude mice bearing the human lung cancer xenografts MV522 and SK-MES. Fragments of human tumor carcinomas harvested from subcutaneously growing tumors in nude mice hosts were implanted subcutaneously. When tumors were approximately 60-75 mg in size (10-14 days after implantation), mice were pair matched into treatment and control groups. Epothilone D was given intraperito-neally twice a day for 7 days (6 to 14 mg/kg/day), carboplatin intraperitoneally every daily for 5 days (10 to 40 mg/kg/day), various combinations of epothilone D (first) and carboplatin (second), or vehicle control.

[3] = system: human lung cancer xenograft SK-MES; test: Human lung cancer xenograft in nude mice; assay type: in vivo; conditions: ip, epothilone D twice a day for 7 days (6 to 14 mg/kg/day), carboplatin daily for 5 days (10 to 40 mg/kg/day), dose dependent
Method: as §2

Compound | IC50 (A549) [nM] | IC50 (H226) [nM] | IC50 (H23) [nM] | IC50 (H358) [nM] | IC50 (H460) [nM] | IC50 (H522) [nM] | cytotoxic effects against cultured NSCLC human cancer cell lines [1] | antiproliferative activity (measured as tumor size), single agent [2] | antiproliferative activity (measured as tumor size), single agent [3]
C/C1=C/CC(/C(C)=C/c2csc(C)n2)OC(=O)C[C@H](O)C(C)(C)C(=O)[C@H](C)[C@@H](O)[C@@H](C)CCC1 (stereo partly drawn) [Epothilone D, epothilone D] | 40 | 50 | 37 | 40 | 33 | 40 | potent cytotoxic effects | antiproliferative activity | antiproliferative activity
[NH2][Pt]1([NH2])[O]C(=O)C2(CCC2)C(=O)[O]1 [Carboplatin, carboplatin] | – | – | – | – | – | – | essentially inactive | antiproliferative activity | antiproliferative activity
